Measured values: patent US20230286995A1, “METABOLICALLY STABLE PYRIMIDINYL DIHYDROQUINOXALINONES AS TUBULIN POLYMERIZATION INHIBITORS” (UNIVERSITY OF TENNESSEE RESEARCH FOUNDATION, priority 2022, published 2023)
Like-named read-outs stand apart in the source and are kept apart here.

What was measured:
MDA-MB-453 = experiment: Cytotoxicity assay (MTS, 72 h); format: cell-based, human; conditions: Homo sapiens, MDA-MB-453; Table 6; read-out: IC50 (nM) Breast Cancer MDA-MB-453
A-253 and Detroit 562 [1] = experiment: Western blot of apoptosis markers, head and neck cancer; format: cell-based, human; conditions: 100 nM, 72 hours
From the text: FIG. 42A illustrates that compound 12k induces apoptosis in the A-253 cell line. FIG. 42B illustrates that compound 12k induces apoptosis in the Detroit 562 cell line.

Mia PaCa-2 [2] = experiment: Cytotoxicity assay (MTS, 72 h); format: cell-based; conditions: Homo sapiens
[3] = Pharmacokinetic evaluation of 12k in mice; format: in vivo, NSG mice; conditions: female, mouse, plasma; for half-life: NSG
Method: Female NSG mice at 7 to 9 weeks of age were used in pharmacokinetic studies. Mice received a single dose of 4 mg/kg 12k intravenously (50% PEG300:50% saline) or 10 mg/kg orally (90% PEG300:10% saline). Blood of animals (n=3) was collected in heparinized tubes via terminal intracardiac blood collection at predefined time points (0.08, 0.25, 0.5, 1, 3, 6, 12, 24 h) and plasma was immediately separated by centrifugation (10,000 rpm for 10 min at 4° C.) and stored at −80° C. until analysis.

A-253 and Detroit 562 [4] = experiment: Head and neck cancer cell proliferation (confluence %)
PC3 = experiment: Cytotoxicity assay (MTS, 72 h); format: cell-based; conditions: Homo sapiens, PC-3; Table 6; read-out: IC50 (nM) Prostate cancer PC3
From the text: (§1) Cytotoxicity Assay. […] Each experiment consisted of four replicates.

in vitro [5] = conditions: human, liver microsomes
M14 = experiment: Cytotoxicity assay (MTS, 72 h); conditions: Homo sapiens, M14, read-out: IC50 (nM) Melanoma Cancer M14
A-253 and Detroit 562 [6] = experiment: Cytotoxicity in head and neck cancer cell lines; format: cell-based; conditions: Homo sapiens; FIG. 39A; read-out: IC50 values, range over A-253 and Detroit 562
Method: A panel of dihydroquinoxalinones were tested in two head and neck cancer cell lines, A-253 and Detroit 562. A-253 cells are a human salivary epidermoid carcinoma cell line, whereas Detroit 562 is a head and neck squamous cell carcinoma (HNSCC). Oral cancer is the most common type of head and neck cancer and more than 90% of oral cancers are either oral or oropharyngeal squamous cell carcinoma (SCC). A major clinical dilemma is chemotherapy efficiency targeted for head and neck squamous cell carcinoma (HNSCC). The inability to successfully complete cancer treatment utilizing a standard surgical approach due to an advanced stage of HNSCC and/or resistance of SCC cells to conventional chemotherapy and/or radiotherapy leads to a continuous search for new compounds with cytostatic activity and minor side effects.
FIGS. 39B and 39C illustrate the graphical representation of the data. […] For example, at treatment levels as low of 0.5 nM, 12k was able to prevent head and neck cancer cell proliferation almost completely, whereas it required 5 nM of 17ya to achieve similar antiproliferation.

[7] = test system: PC-3/TxR xenograft tumors; experiment: Subcutaneous PC-3/TxR xenograft model; format: in vivo
Detroit 562 cells = experiment: Colony formation, head and neck cancer; format: cell-based, human
Method: (§2) FIG. 41A illustrates the effect of compound 12k on colony formation in the A-253 cell line. FIG. 41B illustrates the effect of compound 12k on colony formation in the Detroit 562 cell line. Colony formation experiments were performed as described elsewhere herein.

A-253 cells = experiment: Colony formation, head and neck cancer; format: cell-based, human
Method: as §2

PC3/TxR = experiment: Cytotoxicity assay (MTS, 72 h); format: cell-based; conditions: Homo sapiens, Table 6, paclitaxel-resistant, read-out: IC50 (nM) Prostate cancer PC3/TxR
Method: Biology. Cell culture and Reagents. […] MIA Paca-2 pancreatic cancer cells were cultured in media also supplemented with 2.5% horse serum. PANC-1 and PC-3 were cultured in RPMI 1640 medium (Gibco, Carlsbad, Calif.) supplemented with 10% FBS and 1% antibiotic/antimycotic mixture. […] For biological experiments, pyrimidine dihydroquinoxalinone derivatives were dissolved in DMSO to create 20 mM stock solutions and stored at −20° C. until use.
as §1

in vitro [8] = conditions: mouse, liver microsomes
PANC-1 [9] = experiment: Cytotoxicity assay (MTS, 72 h); format: cell-based; conditions: Homo sapiens
Method: Mia PaCa-2 and PANC-1 cells were seeded in 96-well plates at 4000 and 5000 cells per well, respectively.
as §1

MDA-MB-231 = experiment: Cytotoxicity assay (MTS, 72 h); format: cell-based; conditions: Homo sapiens
in vivo = conditions: male, NSG, mouse, brain/plasma, iv, 4 mg/kg
A375 = experiment: Cytotoxicity assay (MTS, 72 h); conditions: Homo sapiens, A-375, read-out: IC50 (nM) Melanoma Cancer A375, Table 6;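 further: compounds tested from 0.1 nM up to 3 µM in four replicate wells, with absorbance read at 490 nm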
A549/TxR = experiment: cells; conditions: Homo sapiens, read-out: IC50 ± SEM (nM) A549/TxR
porcine brain tubulin = target: T1, porcine brain tubulin (Sus scrofa, UniProt P02550+P02554); experiment: Tubulin polymerization inhibitory assay (FIG. 29A); format: biochemical; conditions: 10 μM, 37° C.; DMSO control 0.3
T1 construct: tubulin mixture containing porcine brain tubulin (3 mg/mL); purchased Cytoskeleton, Inc. T-238P; host or cells: porcine brain
Method: Tubulin polymerization inhibitory assay: In vitro tubulin polymerization assay was carried out according to the manufacturers' instructions (Cytoskeleton). Briefly, 10 μM of 5v was added into tubulin protein (3 mg/mL, purity>99%), and the mixture was transferred into a microplate reader and incubated at 37° C. […] Colchicine and paclitaxel were used as positive controls. […] The assay was carried out in duplicate.

[10] = target: T2, tubulin protein from bovine brain (Bos taurus, UniProt P81947+Q6B856); experiment: Tubulin polymerization assay (FIG. 5A); format: biochemical; conditions: 10 μM, cell-free
T2 construct: tubulin protein from bovine brain origin; purchased Cytoskeleton, Denver, Colo; host or cells: bovine brain
Method: Tubulin polymerization reaction was initiated by adding 100 μL of tubulin protein from bovine brain origin (3 mg/ml, Cytoskeleton, Denver, Colo.) into 10 μM of test compounds in general tubulin buffer (80 mM PIPES, 2.0 mM MgCl2, 0.5 mM EGTA, and 1 mM GTP) according to the manufacturer protocol. The reaction kinetics were recorded in every thirty seconds for 1 h at 37° C. and a microplate reader equipped with absorbance settings at 340 nm wavelength was used for this purpose. The experiment was performed in duplicates.

MDA-MB-231/VxR = experiment: Cytotoxicity assay (MTS, 72 h); format: cell-based; conditions: Homo sapiens, MDA-MB-231, read-out: IC50 ± SEM (nM) MDA-MB-231/VXR
Mia PaCa-2 [11] = experiment: Colony formation assay (PDAC); format: cell-based, human; conditions: tested 1, 2.5, 5 nM
Method: Cells were seeded at 1000 cells per well in 6-well plates in triplicates and treated with vehicle control or 1-5 nmol/L test compounds for 11 to 14 days. The colonies were fixed with 100% methanol and stained with 0.5% crystal violet. Colony area was quantified with Image J software.

A375/TxR xenografts = experiment: In vivo A375/TxR melanoma xenograft model; set-up: species or system NSG mice
PANC-1 [12] = experiment: Colony formation assay (PDAC); format: cell-based, human; conditions: tested 1, 2.5, 5 nM
Mia PaCa-2 cells = experiment: Scratch migration assay (PDAC); format: cell-based, human; conditions: 5m 2 nM, PTX 4 nM, 48 h; listed as PTX
Method: The Mia PaCa-2 cells (25,000 cells/well) were seeded in 96-well plates and allowed to adhere overnight. At 80-90% confluence, scratch was made with a wound maker. After washing off the debris, medium was replaced and tested compounds were added. Cells were live monitored with IncuCyte and pictures obtained every 2 h. Compared with the control, the wound width of cells under different treatment conditions was quantified according to the endpoint width over starting point.

[13] = test system: A2780/TxR ovarian cancer xenografts; experiment: Orthotopic A2780/TxR ovarian cancer xenograft model; conditions: paclitaxel 5 mg/kg IV
MDA-MB-231/TxR = experiment: Cytotoxicity assay (MTS, 72 h); format: cell-based; conditions: Homo sapiens, read-out: IC50 ± SEM (nM) MDA-MB-231/TxR, Table 2, paclitaxel-resistant
[14] = intravenous (4 mg/kg), NSG mice

T1 sequence (P02550 whole entry): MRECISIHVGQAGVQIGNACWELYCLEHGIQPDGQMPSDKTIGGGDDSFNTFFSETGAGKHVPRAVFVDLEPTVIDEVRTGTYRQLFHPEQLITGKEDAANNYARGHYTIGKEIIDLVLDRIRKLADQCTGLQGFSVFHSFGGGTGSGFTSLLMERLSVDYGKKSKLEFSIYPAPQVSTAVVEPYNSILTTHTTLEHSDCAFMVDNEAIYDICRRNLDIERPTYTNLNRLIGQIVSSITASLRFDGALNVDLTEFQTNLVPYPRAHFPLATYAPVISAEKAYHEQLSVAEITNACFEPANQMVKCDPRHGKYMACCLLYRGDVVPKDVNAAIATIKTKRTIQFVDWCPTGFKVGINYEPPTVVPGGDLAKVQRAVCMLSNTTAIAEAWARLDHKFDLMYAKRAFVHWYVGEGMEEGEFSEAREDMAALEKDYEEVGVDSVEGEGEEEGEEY
T1 sequence (P02554 whole entry): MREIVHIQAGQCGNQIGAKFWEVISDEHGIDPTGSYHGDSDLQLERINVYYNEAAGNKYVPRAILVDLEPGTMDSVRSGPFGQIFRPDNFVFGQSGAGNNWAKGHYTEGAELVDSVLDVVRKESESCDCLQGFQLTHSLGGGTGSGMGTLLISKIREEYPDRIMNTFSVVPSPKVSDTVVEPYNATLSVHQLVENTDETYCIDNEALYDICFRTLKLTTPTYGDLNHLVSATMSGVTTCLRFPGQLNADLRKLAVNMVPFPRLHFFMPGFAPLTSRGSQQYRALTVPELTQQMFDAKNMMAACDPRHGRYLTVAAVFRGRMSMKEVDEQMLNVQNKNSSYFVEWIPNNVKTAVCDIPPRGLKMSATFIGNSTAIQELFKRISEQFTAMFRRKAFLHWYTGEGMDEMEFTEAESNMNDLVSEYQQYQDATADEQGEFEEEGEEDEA
T2 sequence (P81947 whole entry): as the sequence (P02550 whole entry) above, with S136L, G232S, A265I, T340S, E358Q counted along it
T2 sequence (Q6B856 whole entry): as the sequence (P02554 whole entry) above, with A55T, V170M, A296S, V316I, G440E, E441G counted along it

CNc1nc2c(c(N3CC(=O)Nc4cc(OC)ccc43)n1)CCC2 [Compound 12k, 7-methoxy-4-(2-(methylamino)-6,7-dihydro-5H-cyclopenta[d]pyrimidin-4-yl)-3,4-dihydroquinoxalin-2(1H)-one]
IC50 (MDA-MB-453): 0.9 ± 0.2 nM | apoptotic markers c-PARP and c-cas 3 (A-253 and Detroit 562 [1]): elevated levels of apoptotic markers | IC50 (Mia PaCa-2 [2]; Table 6, read-out: IC50 (nM) Pancreatic cancer Mia PaCa-2): 2.9 ± 0.5 nM | half-life ([3]; intravenous, 4 mg/kg, text b345, read-out: in vivo half-life): 238 min | half-life ([3]; iv, 4 mg/kg, intravenous (4 mg/kg), NSG mice, read-out: t1/2 (converted)): 238 min | half-life ([3]; po, 10 mg/kg, oral (10 mg/kg), NSG mice, read-out: t1/2 (converted)): 358 min | AUC [3, 14]: 2890 ng·h/mL | Cmax [3, 14]: 1250 ng/mL | Tmax [3, 14]: 5 min | AUC ([3]; oral (10 mg/kg), NSG mice): 136 ng·h/mL | Cmax ([3]; oral (10 mg/kg), NSG mice): 78.3 ng/mL | Tmax ([3]; oral (10 mg/kg), NSG mice): 10 min | bioavailability ([3]; oral (10 mg/kg), NSG mice): 2.02% | potency of 12k relative to compound 17ya (A-253 and Detroit 562 [4]; A-253 and Detroit 562): ~10 fold | treatment level preventing cell proliferation almost completely (A-253 and Detroit 562 [4]; confluence over 62 h): 0.5 nM | IC50 (PC3): 0.5 ± 0.1 nM | half-life at 1 μg/mL (in vitro [5]): > 300 min | microsomal CLint at 1 μg/mL (in vitro [5]): < 2.31 µL/min/mg | IC50 (M14): 0.7 ± 0.1 nM | IC50 (A-253 and Detroit 562 [6]): 0.52 to 3.2 nM | inhibition of tumor growth in volume (ex vivo) vs control ([7]; 2.5 mg/kg i.v., 2 doses/week): approximately 85.6% | reduction of tumor weight vs control ([7]; 2.5 mg/kg i.v., 2 doses/week): 84.5% | tolerability / body weight ([7]; 2.5 mg/kg twice per week): well tolerated | concentration with near complete inhibition of colony formation (Detroit 562 cells): 2 nM | concentration with near complete inhibition of colony formation (A-253 cells): 1 nM | IC50 (PC3/TxR): 0.2 nM | half-life at 1 μg/mL (in vitro [8]): > 300 min | microsomal CLint at 1 μg/mL (in vitro [8]): < 2.31 µL/min/mg | IC50 (PANC-1 [9]; Table 6, read-out: IC50 (nM) Pancreatic cancer PANC-1): 2.8 ± 0.5 nM | IC50 (MDA-MB-231; MDA-MB-231, read-out: IC50 (nM) Breast Cancer MDA-MB-231, Table 6): 2.2 ± 1.5 nM | Kp at 1 h (in vivo): 0.45 | IC50 (A375): 1.2 ± 0.2 nM

CC(=O)O[C@H]1C(=O)[C@@]2(C)[C@H]([C@H](OC(=O)c3ccccc3)[C@]3(O)C[C@H](OC(=O)[C@H](O)[C@@H](NC(=O)c4ccccc4)c4ccccc4)C(C)=C1C3(C)C)[C@]1(OC(C)=O)CO[C@@H]1C[C@@H]2O [Paclitaxel, reference compound]
IC50 (A549/TxR): > 1000 nM | A340 at which tubulin assembly stabilized (porcine brain tubulin): approximately 0.4 | IC50 (Mia PaCa-2 [2]; Example 7, FIG. 20, read-out: calculated IC50, Mia PaCa-2 cells): 2.5 nM | effect on microtubule polymerization [10]: polymerization enhancement | IC50 (MDA-MB-231/VxR): 3.4 ± 0.5 nM | dose at which colony formation was completely inhibited (Mia PaCa-2 [11]): 5 nM | spontaneous lung metastasis (A375/TxR xenografts; H&E and anti-human mitochondria IHC): no effect on the lung spontaneous metastasis | tumor-suppressive effect (A375/TxR xenografts; paclitaxel 4 mg/kg IV twice a week): no significant tumor-suppressive effect | effect on tumor growth (A375/TxR xenografts; paclitaxel 10 mg/kg IV, 2 times per week): ineffective | dose with nearly complete inhibition of colony formation (PANC-1 [12]): 5 nM | cell migration / wound healing (Mia PaCa-2 cells): inhibited cell migration over 48 hours | tumor weight reduction ([7]; paclitaxel 10 mg/kg, 1 dose/week): insignificant tumor weight reduction | effect on A2780/TxR model [13]: limited effect | IC50 (MDA-MB-231/TxR): > 50 nM | IC50 (PANC-1 [9]; Example 7, FIG. 20, read-out: calculated IC50, PANC-1 cells): 1.1 nM | IC50 (MDA-MB-231; MDA-MB-231, read-out: IC50 ± SEM (nM) MDA-MB-231, Table 2): 2.3 ± 0.4 nM
